For one experiment, the system named is A. baumannii CDC-0045. In words: microbe, parasite or virus in culture. The format is cell-based. Particulars: Acinetobacter baumannii, CDC0045, read-out: Minimum inhibitory concentration (MIC), A. baumannii CDC-0045.
Experiment [1] has as its system B. thailandensis ATCC 700388. Description: microbe, parasite or virus in culture. Particulars: Burkholderia thailandensis, ATCC700388, read-out: Minimum inhibitory concentration (MIC), B. thailandensis ATCC 700388. The experiment is classed as cell-based.
In another experiment the test system is A. baumannii 1258916. In words: microbe, parasite or virus in culture. The format is cell-based, Acinetobacter baumannii. As to conditions: Acinetobacter baumannii, 1258916, read-out: Minimum inhibitory concentration (MIC), A. baumannii 1258916.
In a further experiment the test system is P. aeruginosa ATCC 35151. Description: microbe, parasite or virus in culture. The experiment is classed as cell-based. As to conditions: Pseudomonas aeruginosa, ATCC35151, read-out: Minimum inhibitory concentration, P. aeruginosa ATCC 35151.
A further experiment has as its system P. aeruginosa CDC-0054. In words: microbe, parasite or virus in culture. The format is cell-based. As to conditions: Pseudomonas aeruginosa, CDC0054, read-out: Minimum inhibitory concentration, P. aeruginosa CDC-0054.
Experiment [2] concerns the target T1, PBP3 from Acinetobacter baumannii (ATCC 19606) (Acinetobacter baumannii, UniProt A0ABX6CK25).
T1 sequence (A0ABX6CK25 64-610): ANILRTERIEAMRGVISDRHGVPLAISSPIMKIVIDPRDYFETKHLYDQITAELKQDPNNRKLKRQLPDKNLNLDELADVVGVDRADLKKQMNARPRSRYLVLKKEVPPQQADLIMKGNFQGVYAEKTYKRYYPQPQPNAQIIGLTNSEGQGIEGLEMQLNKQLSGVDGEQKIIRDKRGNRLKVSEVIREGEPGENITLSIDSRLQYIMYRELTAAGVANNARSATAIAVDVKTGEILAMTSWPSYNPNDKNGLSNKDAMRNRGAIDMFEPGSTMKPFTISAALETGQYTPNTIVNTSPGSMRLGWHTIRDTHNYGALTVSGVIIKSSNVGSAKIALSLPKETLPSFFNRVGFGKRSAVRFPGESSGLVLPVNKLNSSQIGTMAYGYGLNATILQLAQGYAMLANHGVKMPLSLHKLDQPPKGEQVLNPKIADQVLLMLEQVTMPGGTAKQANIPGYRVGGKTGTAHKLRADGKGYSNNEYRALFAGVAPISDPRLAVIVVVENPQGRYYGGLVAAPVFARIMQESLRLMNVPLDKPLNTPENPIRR
In words: Bocillin-FL fluorescence polarization competition binding, A. baumannii PBP3. Particulars: fluorescence polarization competition binding assay using Bocillin-FL; read-out: A. baumannii PBP3 Potency. In short, it runs like this:
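Purified PBPs pre-incubated with inhibitor (E. coli PBP3 1.5 μM, 30 min; P. aeruginosa PBP3 0.75 μM, A. baumannii PBP1a 1 μM and PBP3 0.2 μM, 15 min), then Bocillin-FL 0.1 μM (0.05 μM for PBP1a) added; FP read up to 60 min. EC50 = concentration halving bound Bocillin-FL.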
For orientation: In fluorescence polarisation assays a small probe gives low polarisation when free and higher when bound to something large.

The test system of the next experiment is A. baumannii ATCC 17978. In words: microbe, parasite or virus in culture. The format is cell-based. Particulars: Acinetobacter baumannii, ATCC17978, read-out: Minimum inhibitory concentration (MIC), A. baumannii ATCC 17978.
Experiment [3] relates to B. humptydooensis ATCC BAA-2767. Description: microbe, parasite or virus in culture. The experiment is classed as cell-based. Particulars: Burkholderia humptydooensis, ATCCBAA2767, read-out: Minimum inhibitory concentration (MIC), B. humptydooensis ATCC BAA-2767.
A further experiment has as its system A. baumannii CDC-0033. Description: microbe, parasite or virus in culture. The experiment is classed as cell-based. As to conditions: Acinetobacter baumannii, CDC0033, read-out: Minimum inhibitory concentration (MIC), A. baumannii CDC-0033.
Experiment [4] deals with P. aeruginosa (ΔmexAB-oprM). In words: Broth microdilution MIC in iron-depleted CAMHB (IDM). The format is cell-based. As to conditions: Pseudomonas aeruginosa; iron-depleted CAMHB (IDM); […]; read-out: Minimum inhibitory concentration, P. aeruginosa ΔmexAB-oprM.

≈ marks a conversion by molar mass, not a printed value. A value given as a limit tells only on which side of the number the result lay.

On to `O=C(O)c1c(F)ccc2c1OB(O)[C@@H](NC(=O)[C@H](NC(=O)N1CCN(C3CCN(Cc4ccncc4)CC3)C1=O)c1cc(F)c(O)c(O)c1Cl)C2` [Example 493, (R)-3-((R)-2-(2-chloro-5-fluoro-3,4-dihydroxyphenyl)-2-(2-oxo-3-(1-(pyridin-4-ylmethyl)piperidin-4-yl)imidazolidine-1-carboxamido)acetamido)-7-fluoro-2-hydroxy-3,4-dihydro-2H-benzo[e][1,2]oxaborinine-8-carboxylic acid], for which the MIC in the experiment with A. baumannii CDC-0045 was under 1 µg/mL; in experiment [1], under 1 µg/mL; in the experiment with A. baumannii 1258916 it was under 1 µg/mL; with P. aeruginosa ATCC 35151, under 1 µg/mL; with P. aeruginosa CDC-0054, 2 to 4 µg/mL (≈ 2.74 to 5.49 µM); with A. baumannii ATCC 17978 it was under 1 µg/mL. The MIC in [3] was under 1 µg/mL; in the experiment with A. baumannii CDC-0033, 2 to 4 µg/mL (≈ 2.74 to 5.49 µM); in experiment [4] it was under 1 µg/mL. The IC50 in experiment [2] was under 10 µM.

The values are drawn from patent US20240270762A1, “PENICILLIN-BINDING PROTEIN INHIBITORS” (priority 2021, published 2024).
